Experimental data: US20250179114A1, “Anti-Inflammatory Compound and Use Thereof” (DUALITY BIOLOGICS (SUZHOU) CO., LTD., priority 2021, published 2025)

Experiments:
Type in all cases: cell-based
glucocorticoid receptor = target: T1, glucocorticoid receptor (Homo sapiens, UniProt P04150); assay: Activity assay of glucocorticoid receptor reporter gene GRE; conditions: HEK293 cells transfected with pGL5 and pBIND-GR; 24 h; Dual-Glo luciferase
T1 construct: host or cells: HEK293
T1 sequence (P04150 1-777): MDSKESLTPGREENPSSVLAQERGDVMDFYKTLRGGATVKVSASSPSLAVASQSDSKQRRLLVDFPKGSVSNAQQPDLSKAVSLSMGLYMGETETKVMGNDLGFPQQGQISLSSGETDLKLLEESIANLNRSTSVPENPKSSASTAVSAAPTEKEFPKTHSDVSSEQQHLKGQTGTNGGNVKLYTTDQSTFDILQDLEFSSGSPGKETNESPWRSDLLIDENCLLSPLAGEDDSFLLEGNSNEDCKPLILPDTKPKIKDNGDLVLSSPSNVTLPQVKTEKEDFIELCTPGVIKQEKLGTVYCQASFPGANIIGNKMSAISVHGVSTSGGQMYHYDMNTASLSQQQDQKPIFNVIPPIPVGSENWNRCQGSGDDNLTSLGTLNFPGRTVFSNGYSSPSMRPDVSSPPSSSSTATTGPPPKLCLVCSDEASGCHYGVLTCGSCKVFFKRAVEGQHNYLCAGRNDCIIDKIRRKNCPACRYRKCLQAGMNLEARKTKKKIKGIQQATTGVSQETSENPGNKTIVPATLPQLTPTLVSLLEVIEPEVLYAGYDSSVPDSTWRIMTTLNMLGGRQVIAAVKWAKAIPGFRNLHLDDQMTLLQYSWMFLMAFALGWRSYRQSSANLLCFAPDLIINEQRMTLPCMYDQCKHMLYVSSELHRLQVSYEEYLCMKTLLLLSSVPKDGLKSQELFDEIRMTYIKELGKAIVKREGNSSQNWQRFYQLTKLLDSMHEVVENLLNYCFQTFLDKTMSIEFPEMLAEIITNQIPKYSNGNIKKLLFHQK
Procedure: HEK293 cells were cultured in DMEM+10% FBS medium in a carbon dioxide incubator humidified at 37° C. with 5% carbon dioxide.
HEK293 cells were digested with trypsin, and the HEK293 cell resuspension was adjusted to 200,000 cell/mL in medium (96 well plate: 100 μL/well).
Transfection reagent mixtures were prepared according to Tables 5a and 5b below, mixed well and left to stand at room temperature for 20 min.
The prepared transfection mixtures were added to 10 mL of the cell density-adjusted resuspension, mixed well by turning the mixtures upside down, and seeded into a 96-well plate at a volume of 100 μL/well.
The 96-well plate was incubated in a humidified incubator at 37° C. with 5% carbon dioxide for 24 h.
The test plate was placed back into the incubator and incubated for 24 h.
The test plate was detected using the Dual-Glo Luciferase Assay System kit from Promega, and the fluorescence signal of Firefly Luciferase and the fluorescence signal of Renilla Luciferase were read using Enspire, respectively.
The final measurement value was a normalized value “F/R” obtained by dividing the Firefly Luciferase fluorescent signal by the Renilla Luciferase fluorescent signal.
The data were copied and pasted into Excel, and the activation rate was obtained through an equation.
The data were imported into MS Excel and subjected to curve fitting by using XLFit excel add-in version 5.4.0.8 to obtain an EC50 value.
Y is the agonism and X is the concentration of the compound.

[1] = test system: IFN-α secretion from PBMC under R848 stimulation; assay: R848-induced release of IFNα from human peripheral blood monocytes (PBMC); set-up: unit not given here; conditions: R848 5 μM, 24 h, ELISA
Procedure: (§1) Example 4: Inhibitory Effect of Compounds of the Present Invention on R848-Induced Release of IFNα and TNFα from Human Peripheral Blood Monocytes
(§2) The compounds of the present application were detected for their inhibitory effect on the production of peripheral blood monocytes. The peripheral blood monocytes were treated in vitro with the ligand-drug conjugates at different concentrations, and IFNα and TNFα produced by the peripheral blood monocytes were quantitatively detected after a certain time. The compounds of the present invention were evaluated for in-vitro activity.
(§3) The cryopreserved human PBMC cells were resuspended in a complete medium and counted, and the cell suspension was adjusted to 2.5×10^6 cells/mL with the culture medium. After the suspension was centrifuged to collect the cells the next day, the cells were resuspended using fresh culture medium. Test compounds were diluted to 4-fold final concentration in cell culture medium, 50 μL of the compounds were added into a 96-well cell plate, and 100 μL of diluted cells (800,000 cells/well) were added into each well of the 96-well plate containing the compounds, followed by addition of 50 μL R848 to a final concentration of 5 μM. The cell plate was incubated at 37° C. with 5% CO2 for 24 h. The supernatant was collected, and the TNF-α and IFN-α concentration levels in the supernatant were detected using an ELISA kit. TNF-α concentration assay was performed using Dakewe TNF-α ELISA kit (Cat #1117202), 100 μL of the serially-diluted cytokine standard was added into each well, 100 μL of the above supernatant diluted 10-fold was added into each well, and 100 μL of 1× dilution buffer R was added into each blank control well. 50 μL of biotinylated antibody working solution was added into each well. After mixing well, the plate was covered with a plate-sealing membrane and incubated at room temperature for 3 h. The plate was washed for 3 times: the liquid in each well was discarded, and 300 μL of 1× washing buffer working solution was added into each well; after 1 minute of residence, the liquid in the wells was discarded. The procedure was repeated for 3 times. 100 μL of Streptavidin-HRP working solution was added into each well. The plate was covered with the plate-sealing membrane and incubated at room temperature for 20 min. The plate was washed for 3 times, 100 μL of TMB liquid was added into each well, and the plate was incubated at room temperature (18-25° C.) in the dark for 25 min. The reaction was stopped by adding 100 μL stop solution rapidly to each well. The reading at a wavelength of 450 nm was detected by an M2e instrument within 10 min after termination.
IFN-α concentration assay was performed using Dakewe IFN-α ELISA kit (Cat #1110012), 100 μL of the serially-diluted cytokine standard was added into each well, 100 μL of the above supernatant diluted 2-fold was added into each well, and 100 μL of 1× dilution buffer R was added into each blank control well. 50 μL of biotinylated antibody working solution was added into each well. After mixing well, the plate was covered with a plate-sealing membrane and incubated at room temperature for 3 h. The plate was washed for 3 times: the liquid in each well was discarded, and 300 μL of 1× washing buffer working solution was added into each well; after 1 minute of residence, the liquid in the wells was discarded. The procedure was repeated for 3 times. 100 μL of Streptavidin-HRP working solution was added into each well. The plate was covered with the plate-sealing membrane and incubated at room temperature for 20 min. The plate was washed for 3 times, 100 μL of TMB liquid was added into each well, and the plate was incubated at room temperature (18-25° C.) in the dark for 25 min. The reaction was stopped by adding 100 μL stop solution rapidly to each well. The reading at a wavelength of 450 nm was detected by an M2e instrument within 10 min after termination. […]

[2] = test system: TNF-α secretion from PBMC under R848 stimulation; assay: R848-induced release of TNFα from human peripheral blood monocytes (PBMC); set-up: unit not given here; conditions: R848 5 μM, 24 h, ELISA
Procedure: as §1, §2, §3
The contents of TNF-α and IFN-α were calculated from the OD450 values (Mean±standard deviation).

Structure (SMILES) | EC50 (glucocorticoid receptor) [nM] | IFN-α content in supernatant (Mean±standard deviation) ([1]; compound 4 nM) | IFN-α content in supernatant (Mean±standard deviation) ([1]; compound 20 nM) | IFN-α content in supernatant (Mean±standard deviation) ([1]; compound 100 nM) | TNF-α content in supernatant (Mean±standard deviation) ([2]; compound 4 nM) | TNF-α content in supernatant (Mean±standard deviation) ([2]; compound 20 nM) | TNF-α content in supernatant (Mean±standard deviation) ([2]; compound 100 nM)
C[C@]12C=CC(=O)C=C1CC[C@@H]1[C@@H]2[C@@H](O)C[C@@]2(C)[C@H]1C[C@H]1O[C@@H](c3ccn(Cc4ccc(N)cc4)c3)O[C@]12C(=O)CO [Compound 2] | 0.15 | 108 ± 11 | 11.1 ± 11.1 | 0 ± 0 | 898.3 ± 27.7 | 584.4 ± 171.1 | 623.3 ± 238.4
C[C@]12C=CC(=O)C=C1CC[C@@H]1[C@@H]2[C@@H](O)C[C@@]2(C)[C@H]1C[C@H]1O[C@@H](c3ccn(Cc4cccc(N)c4)c3)O[C@]12C(=O)CO [Compound 1] |  | 228.3 ± 0.2 | 0 ± 0 | 0 ± 0 | 1187.6 ± 87.4 | 611.9 ± 10.7 | 592.8 ± 92.1
